Assays:
[1] = molecular target: EPHA2 (Homo sapiens, UniProt P29317); experiment: SelectScreen kinase profiling, ZLYTE; settings: read-out: % Inhibition Avg
[2] = molecular target: EPHA4 (Homo sapiens, UniProt P54764); experiment: SelectScreen kinase profiling, ZLYTE; format: biochemical; settings: EPHA4, 10 µM
[3] = molecular target: ERN2 (Homo sapiens, UniProt Q76MJ5); experiment: SelectScreen kinase profiling, LanthaScreen binding; settings: ERN2, 10 µM
[4] = molecular target: SPHK1 (Homo sapiens, UniProt Q9NYA1); experiment: SelectScreen kinase profiling, Adapta; format: biochemical; settings: SPHK1, 10 µM
[5] = molecular target: RPS6KA5 (MSK1) (Homo sapiens, UniProt O75582); experiment: SelectScreen kinase profiling, ZLYTE; format: biochemical
RPS6KA5 (MSK1), sequence (O75582 whole entry): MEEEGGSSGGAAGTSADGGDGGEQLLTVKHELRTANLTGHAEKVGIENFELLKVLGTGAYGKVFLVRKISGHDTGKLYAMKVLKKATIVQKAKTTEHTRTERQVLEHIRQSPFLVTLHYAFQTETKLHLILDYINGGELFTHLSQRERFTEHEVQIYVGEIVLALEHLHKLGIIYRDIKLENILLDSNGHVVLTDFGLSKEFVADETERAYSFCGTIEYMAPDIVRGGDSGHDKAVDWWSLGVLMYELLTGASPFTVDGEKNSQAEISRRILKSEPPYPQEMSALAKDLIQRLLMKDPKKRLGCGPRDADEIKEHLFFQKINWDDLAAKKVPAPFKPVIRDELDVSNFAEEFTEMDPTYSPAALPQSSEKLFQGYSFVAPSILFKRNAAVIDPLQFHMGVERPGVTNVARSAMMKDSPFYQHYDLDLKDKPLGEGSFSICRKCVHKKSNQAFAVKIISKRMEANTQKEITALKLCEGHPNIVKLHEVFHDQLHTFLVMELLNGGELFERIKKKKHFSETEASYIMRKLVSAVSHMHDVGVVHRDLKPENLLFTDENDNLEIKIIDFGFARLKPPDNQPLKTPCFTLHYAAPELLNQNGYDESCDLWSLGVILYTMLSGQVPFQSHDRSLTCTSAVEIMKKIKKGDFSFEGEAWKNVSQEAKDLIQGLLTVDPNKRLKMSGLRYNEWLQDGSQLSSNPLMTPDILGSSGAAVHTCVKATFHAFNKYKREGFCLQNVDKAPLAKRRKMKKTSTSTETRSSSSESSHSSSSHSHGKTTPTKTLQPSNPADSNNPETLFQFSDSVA

[6] = molecular target: P450 1A2 (Homo sapiens, UniProt P05177); experiment: SelectScreen P450 Vivid biochemical assay; settings: 10000nM; substrate EOMCC
[7] = molecular target: PIK3C2A (PI3K-C2 alpha) (Homo sapiens, UniProt O00443); experiment: SelectScreen kinase profiling, Adapta; format: biochemical
[8] = molecular target: EPHA6 (Homo sapiens, UniProt Q9UF33); experiment: SelectScreen kinase profiling, LanthaScreen binding; settings: EPHA6, 10 µM
[9] = molecular target: AMPK (A1/B1/G2) (Homo sapiens, UniProt Q13131); experiment: as above
[10] = molecular target: PIK3CA/PIK3R3 (p110 alpha/p55 gamma) (Homo sapiens, UniProt P42336); experiment: SelectScreen kinase profiling, Adapta; format: biochemical; settings: PIK3CA/PIK3R3, 10 µM
[11] = molecular target: CAMK2B (CaMKII beta) (Homo sapiens, UniProt Q13554); experiment: SelectScreen kinase profiling, ZLYTE; format: biochemical
[12] = molecular target: KIT V559D (Homo sapiens, UniProt P10721, V559D); experiment: SelectScreen kinase profiling, ZLYTE; format: biochemical
[13] = molecular target: SNF1LK2 (Homo sapiens, UniProt Q9H0K1); experiment: SelectScreen kinase profiling, ZLYTE; format: biochemical; settings: SNF1LK2, 10 µM
[14] = molecular target: MET (cMet) (Homo sapiens, UniProt P08581); experiment: SelectScreen kinase profiling, ZLYTE; format: biochemical
[15] = molecular target: PDGFRB (PDGFR beta) (Homo sapiens, UniProt P09619); experiment: SelectScreen kinase profiling, ZLYTE; format: biochemical
[16] = molecular target: MAPK13 (p38 delta) (Homo sapiens, UniProt O15264); experiment: SelectScreen kinase profiling, ZLYTE; format: biochemical
[17] = molecular target: MYO3B (MYO3 beta) (Homo sapiens, UniProt Q8WXR4); experiment: SelectScreen kinase profiling, LanthaScreen binding
[18] = molecular target: EEF2K (Homo sapiens, UniProt O00418); experiment: SelectScreen kinase profiling, ZLYTE; format: biochemical
[19] = molecular target: ADCK3 (Homo sapiens, UniProt Q8NI60); experiment: SelectScreen kinase profiling, LanthaScreen binding; settings: ADCK3, 10 µM
Description: Kinase Technology % Inhibition Avg Kinase Technology % Inhibition Avg
STK23 (MSSK1) ZLYTE 59 TGFBR1 (ALK5) LanthaScreen 85
STK24 (MST3) ZLYTE 85 TGFBR2 LanthaScreen 77
STK25 (YSK1) ZLYTE 45 TLK1 LanthaScreen 4
STK3 (MST2) ZLYTE 77 TLK2 LanthaScreen 33
STK32B (YANK2) LanthaScreen 61 TNIK LanthaScreen 15
STK32C (YANK3) LanthaScreen 62 TNK1 ZLYTE 94
STK33 LanthaScreen 81 TNK2 (ACK) LanthaScreen 71
STK38 (NDR) LanthaScreen 85 TTK LanthaScreen 54
STK38L (NDR2) LanthaScreen 59 TXK ZLYTE 94
STK39 (STLK3) LanthaScreen 38 TYK2 ZLYTE 99
STK4 (MST1) ZLYTE 93 TYRO3 (RSE) ZLYTE 92
SYK ZLYTE 98 ULK1 LanthaScreen 80
TAOK1 LanthaScreen 82 ULK2 LanthaScreen 56
TAOK2 (TAO1) ZLYTE 87 ULK3 LanthaScreen 5
TAOK3 (JIK) LanthaScreen 25 VRK2 LanthaScreen 32
TBK1 ZLYTE 99 WEE1 LanthaScreen 75
TEC LanthaScreen -9 WNK1 LanthaScreen 2
TEK (Tie2) ZLYTE 99 WNK2 LanthaScreen 1
TEK (TIE2) R849W LanthaScreen -5 WNK3 LanthaScreen 7
TEK (TIE2) Y897S ZLYTE 80 ZAK LanthaScreen 77
TESK1 LanthaScreen 37 ZAP70 ZLYTE 24
cleavage (Thermo Fisher Scientific, USA)

[20] = molecular target: MAP2K2 (MEK2) (Homo sapiens, UniProt P36507); experiment: as above
[21] = molecular target: CSF1R (FMS) (Homo sapiens, UniProt P07333); experiment: SelectScreen kinase profiling, ZLYTE; format: biochemical
CSF1R (FMS), sequence (P07333 20-972): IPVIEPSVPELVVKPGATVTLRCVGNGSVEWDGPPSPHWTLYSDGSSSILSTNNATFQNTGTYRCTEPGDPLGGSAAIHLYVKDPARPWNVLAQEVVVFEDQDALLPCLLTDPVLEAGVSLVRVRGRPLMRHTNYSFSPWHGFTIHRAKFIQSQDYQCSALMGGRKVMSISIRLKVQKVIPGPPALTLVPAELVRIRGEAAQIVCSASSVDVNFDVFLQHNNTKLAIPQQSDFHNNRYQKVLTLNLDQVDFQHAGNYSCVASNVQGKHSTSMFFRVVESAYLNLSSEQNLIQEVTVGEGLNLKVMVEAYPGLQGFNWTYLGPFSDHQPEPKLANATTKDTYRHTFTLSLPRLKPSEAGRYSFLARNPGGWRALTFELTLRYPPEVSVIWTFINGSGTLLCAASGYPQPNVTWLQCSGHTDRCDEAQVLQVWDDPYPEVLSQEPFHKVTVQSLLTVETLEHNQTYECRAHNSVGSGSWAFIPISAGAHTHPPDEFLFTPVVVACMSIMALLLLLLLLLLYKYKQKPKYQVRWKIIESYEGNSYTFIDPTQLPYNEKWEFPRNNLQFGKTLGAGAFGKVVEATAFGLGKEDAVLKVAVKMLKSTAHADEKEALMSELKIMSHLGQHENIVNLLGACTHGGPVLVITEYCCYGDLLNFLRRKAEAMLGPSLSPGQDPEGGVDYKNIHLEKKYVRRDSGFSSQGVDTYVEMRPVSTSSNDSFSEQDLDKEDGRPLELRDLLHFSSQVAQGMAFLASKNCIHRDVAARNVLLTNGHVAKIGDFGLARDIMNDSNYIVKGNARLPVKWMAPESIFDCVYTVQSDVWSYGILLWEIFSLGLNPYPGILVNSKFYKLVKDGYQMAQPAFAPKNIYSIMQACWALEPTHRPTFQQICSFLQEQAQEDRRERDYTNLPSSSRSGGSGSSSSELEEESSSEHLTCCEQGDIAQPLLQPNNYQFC

[22] = molecular target: MKNK1 (MNK1) (Homo sapiens, UniProt Q9BUB5); experiment: SelectScreen kinase profiling, ZLYTE; format: biochemical
[23] = molecular target: BMPR2 (Homo sapiens, UniProt Q13873); experiment: SelectScreen kinase profiling, LanthaScreen binding; settings: BMPR2, 10 µM
[24] = molecular target: PRKCB1 (PKC beta I) (Homo sapiens, UniProt P05771); experiment: SelectScreen kinase profiling, ZLYTE; format: biochemical
[25] = molecular target: CYP2D6 (Homo sapiens, UniProt P10635); experiment: SelectScreen P450 Vivid biochemical assay; settings: 10000nM; substrate EOMCC
[26] = molecular target: KIT V560G (Homo sapiens, UniProt P10721, V560G); experiment: SelectScreen kinase profiling, ZLYTE; format: biochemical
[27] = molecular target: AMPK (A2/B1/G3) (Homo sapiens, UniProt P54646); experiment: SelectScreen kinase profiling, ZLYTE; format: biochemical
AMPK (A2/B1/G3), sequence (P54646 whole entry): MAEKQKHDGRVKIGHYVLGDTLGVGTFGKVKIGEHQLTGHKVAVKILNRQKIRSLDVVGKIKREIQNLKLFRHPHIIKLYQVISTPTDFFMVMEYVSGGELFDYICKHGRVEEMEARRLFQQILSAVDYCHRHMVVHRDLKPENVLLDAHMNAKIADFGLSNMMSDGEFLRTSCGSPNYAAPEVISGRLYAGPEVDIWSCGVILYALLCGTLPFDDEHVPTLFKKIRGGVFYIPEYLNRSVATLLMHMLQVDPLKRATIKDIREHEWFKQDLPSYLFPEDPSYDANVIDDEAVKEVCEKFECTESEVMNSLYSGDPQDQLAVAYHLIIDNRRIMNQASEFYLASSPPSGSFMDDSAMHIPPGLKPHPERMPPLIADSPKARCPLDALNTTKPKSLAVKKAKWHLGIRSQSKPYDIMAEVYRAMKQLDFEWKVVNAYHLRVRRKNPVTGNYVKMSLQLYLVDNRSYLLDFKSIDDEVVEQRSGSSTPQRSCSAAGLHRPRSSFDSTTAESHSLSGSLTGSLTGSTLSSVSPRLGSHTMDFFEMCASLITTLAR
AMPK (A2/B1/G3), sequence (Q9Y478 whole entry partner): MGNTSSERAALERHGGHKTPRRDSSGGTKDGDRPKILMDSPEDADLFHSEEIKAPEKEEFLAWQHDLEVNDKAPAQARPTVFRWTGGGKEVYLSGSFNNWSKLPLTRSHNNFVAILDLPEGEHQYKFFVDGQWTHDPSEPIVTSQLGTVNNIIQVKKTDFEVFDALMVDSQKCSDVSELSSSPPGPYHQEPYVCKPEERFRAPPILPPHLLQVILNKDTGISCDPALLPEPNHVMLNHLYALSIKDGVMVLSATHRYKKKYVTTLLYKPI
AMPK (A2/B1/G3), sequence (Q9UGI9 whole entry partner): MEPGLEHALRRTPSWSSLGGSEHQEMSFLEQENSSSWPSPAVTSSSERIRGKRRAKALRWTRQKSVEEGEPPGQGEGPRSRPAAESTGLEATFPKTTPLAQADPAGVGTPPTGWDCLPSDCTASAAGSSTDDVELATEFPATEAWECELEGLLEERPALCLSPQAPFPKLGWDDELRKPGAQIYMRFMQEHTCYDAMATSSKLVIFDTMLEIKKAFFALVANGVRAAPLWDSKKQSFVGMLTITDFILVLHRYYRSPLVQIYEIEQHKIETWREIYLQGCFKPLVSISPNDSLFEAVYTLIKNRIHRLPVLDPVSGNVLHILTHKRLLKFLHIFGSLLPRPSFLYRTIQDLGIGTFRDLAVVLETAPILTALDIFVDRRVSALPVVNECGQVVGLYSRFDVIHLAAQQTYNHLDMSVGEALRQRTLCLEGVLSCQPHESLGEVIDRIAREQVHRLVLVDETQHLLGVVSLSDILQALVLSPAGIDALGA

[28] = molecular target: EIF2AK2 (PKR) (Homo sapiens, UniProt P19525); experiment: SelectScreen kinase profiling, LanthaScreen binding
[29] = molecular target: FER (Homo sapiens, UniProt P16591); experiment: SelectScreen kinase profiling, ZLYTE; format: biochemical
[30] = molecular target: GSG2 (Haspin) (Homo sapiens, UniProt Q8TF76); experiment: SelectScreen kinase profiling, Adapta; format: biochemical

ERN2, sequence (Q76MJ5 35-926): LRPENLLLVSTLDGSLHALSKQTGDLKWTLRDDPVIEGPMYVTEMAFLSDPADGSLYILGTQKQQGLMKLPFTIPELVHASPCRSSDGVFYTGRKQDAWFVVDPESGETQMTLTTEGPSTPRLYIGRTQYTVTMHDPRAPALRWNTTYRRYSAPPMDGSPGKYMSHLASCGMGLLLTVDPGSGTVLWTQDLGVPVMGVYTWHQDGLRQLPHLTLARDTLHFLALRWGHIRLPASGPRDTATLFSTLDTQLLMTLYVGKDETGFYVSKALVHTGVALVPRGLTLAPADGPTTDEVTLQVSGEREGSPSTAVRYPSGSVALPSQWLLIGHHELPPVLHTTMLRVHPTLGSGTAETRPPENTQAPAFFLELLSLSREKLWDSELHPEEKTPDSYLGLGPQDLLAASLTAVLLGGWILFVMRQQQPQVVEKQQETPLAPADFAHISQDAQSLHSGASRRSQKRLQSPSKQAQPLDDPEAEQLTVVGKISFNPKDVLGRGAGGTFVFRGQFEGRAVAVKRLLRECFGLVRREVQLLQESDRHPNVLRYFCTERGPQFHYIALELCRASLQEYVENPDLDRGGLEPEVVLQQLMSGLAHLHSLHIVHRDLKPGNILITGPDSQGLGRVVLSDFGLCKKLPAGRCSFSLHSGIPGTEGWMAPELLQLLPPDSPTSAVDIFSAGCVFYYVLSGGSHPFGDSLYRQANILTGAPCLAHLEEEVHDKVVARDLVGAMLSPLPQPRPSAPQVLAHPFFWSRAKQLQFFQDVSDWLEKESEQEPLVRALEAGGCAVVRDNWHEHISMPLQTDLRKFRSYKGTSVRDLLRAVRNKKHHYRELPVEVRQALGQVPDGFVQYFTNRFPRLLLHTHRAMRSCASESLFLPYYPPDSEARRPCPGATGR
EPHA4, sequence (P54764 20-986): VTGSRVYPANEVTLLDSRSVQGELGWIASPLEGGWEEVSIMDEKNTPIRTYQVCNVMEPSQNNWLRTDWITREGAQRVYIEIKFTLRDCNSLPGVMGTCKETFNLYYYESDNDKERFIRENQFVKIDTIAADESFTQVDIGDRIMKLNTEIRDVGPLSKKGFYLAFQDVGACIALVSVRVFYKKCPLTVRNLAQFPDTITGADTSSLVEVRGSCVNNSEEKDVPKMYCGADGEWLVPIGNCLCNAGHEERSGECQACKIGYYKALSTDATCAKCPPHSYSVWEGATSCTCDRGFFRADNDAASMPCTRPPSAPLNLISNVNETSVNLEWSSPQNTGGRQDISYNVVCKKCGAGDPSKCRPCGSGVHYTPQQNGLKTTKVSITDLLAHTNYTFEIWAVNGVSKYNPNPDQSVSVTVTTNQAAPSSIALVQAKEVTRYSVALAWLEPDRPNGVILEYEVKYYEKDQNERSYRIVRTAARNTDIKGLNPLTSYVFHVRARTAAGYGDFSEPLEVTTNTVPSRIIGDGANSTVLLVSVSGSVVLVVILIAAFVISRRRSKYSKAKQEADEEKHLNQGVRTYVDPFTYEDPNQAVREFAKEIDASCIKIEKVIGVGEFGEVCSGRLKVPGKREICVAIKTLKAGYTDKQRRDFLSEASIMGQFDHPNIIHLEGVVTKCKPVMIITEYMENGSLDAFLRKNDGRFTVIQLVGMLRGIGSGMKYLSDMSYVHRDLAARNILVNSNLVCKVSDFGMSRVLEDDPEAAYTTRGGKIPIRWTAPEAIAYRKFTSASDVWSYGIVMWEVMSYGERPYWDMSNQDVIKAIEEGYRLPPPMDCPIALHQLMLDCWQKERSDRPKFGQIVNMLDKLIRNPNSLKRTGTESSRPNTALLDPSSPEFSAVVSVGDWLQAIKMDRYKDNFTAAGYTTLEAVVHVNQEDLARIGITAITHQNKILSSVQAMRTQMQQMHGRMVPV

O=C(c1ccc(/C=C/c2n[nH]c3ccccc23)cc1)N1CCNCC1 [KW-2449]
inhibition at 10 µM [1]: 98% | inhibition at 10 µM [2]: 83% | inhibition at 10 µM [3]: 74% | inhibition at 10 µM [4]: 17% | inhibition at 10 µM [5]: 49% | % Inhibition 1A2 EOMCC [6]: -3% | inhibition at 10 µM [7]: 4% | inhibition at 10 µM [8]: 73% | inhibition at 10 µM [9]: 85% | inhibition at 10 µM [10]: 4% | inhibition at 10 µM [11]: 32% | inhibition at 10 µM [12]: 91% | inhibition at 10 µM [13]: 97% | inhibition at 10 µM [14]: 95% | inhibition at 10 µM [15]: 76% | inhibition at 10 µM [16]: 30% | inhibition at 10 µM [17]: 88% | inhibition at 10 µM [18]: -1% | inhibition at 10 µM [19]: -2% | inhibition at 10 µM [20]: 73% | inhibition at 10 µM [21]: 99% | inhibition at 10 µM [22]: 52% | inhibition at 10 µM [23]: 113% | inhibition at 10 µM [24]: 19% | % Inhibition 2D6 EOMCC [25]: 1% | inhibition at 10 µM [26]: 84% | inhibition at 10 µM [27]: 96% | inhibition at 10 µM [28]: 7% | inhibition at 10 µM [29]: 98% | inhibition at 10 µM [30]: 74%

From publication PMC6540285, “Evaluation of Protein Kinase Inhibitors with PLK4 Cross-Over Potential in a Pre-Clinical Model of Cancer” (International Journal of Molecular Sciences, 2019)
